The experiment has as its target human recombinant PDE5 (Homo sapiens, UniProt O76074). Description: Inhibitory effect on cGMP-PDE (one-step assay, 8-[H3]-cGMP). The format is biochemical. As to conditions: in vitro. On the procedure:
The compounds of structural formula (I) were tested for an ability to inhibit PDE5. The ability of a compound to inhibit PDE5 activity is related to the IC50 value for the compound, i.e., the concentration of inhibitor required for 50% inhibition of enzyme activity. The IC50 value for compounds of structural formula (I) were determined using recombinant human PDE5.
cGMP-PDE activity of compounds of the present invention was measured using a one-step assay adapted from Wells et al., Biochim. Biophys. Acta, 384, 430 (1975). The reaction medium contained 50 mM Tris-HCl, pH 7.5, 5 mM magnesium acetate, 250 μg/ml 5′-Nucleotidase, 1 mM EGTA, and 0.15 μM 8-[H^3]-cGMP. Unless otherwise indicated, the enzyme used was a human recombinant PDE5 (ICOS Corp., Bothell, Wash.).
Compounds of the invention were dissolved in DMSO finally present at 2% in the assay.
A word on the IC50: it is the concentration at which inhibition is half-maximal. On to `CCOC(=O)c1c(C(=O)OCC)c2n(c1C)[C@H](c1ccc3c(c1)OCO3)c1[nH]c3ccccc3c1C2` [Example 1, (R)-5-Benzo[1,3]dioxol-5-yl-3-methyl-6,11-dihydro-5H-indolizino[6,7-b]indole-1,2-dicarboxylic acid diethyl ester], for which the IC50 came to 5.6 nM. Under `CCOC(=O)c1cc(CNCc2ccccc2)n2c1Cc1c([nH]c3ccccc13)C2c1ccc2c(c1)OCO2` (stereo not drawn) [Example 6] stands 10 nM; under `CCOC(=O)c1cc(CN)n2c1Cc1c([nH]c3ccccc13)C2c1ccc2c(c1)CCO2` (stereo not drawn) [Example 8], 40 nM; under `c1ccc2c3c([nH]c2c1)C(c1ccc2c(c1)OCO2)n1cccc1C3` (stereo not drawn) [Example 10], 140 nM. The same measure for `CCOC(=O)c1c(C(=O)OCC)c2n(c1CC)C(c1ccc3c(c1)OCO3)c1[nH]c3ccccc3c1C2` (stereo not drawn) [Example 12]: 10 nM; for `CCOC(=O)c1c(C(=O)O)c(CC)n2c1Cc1c([nH]c3ccccc13)C2c1ccc2c(c1)OCO2` (stereo not drawn) [Example 13]: 5.9 nM; for `O=C(NCC1CCCO1)c1ccn2c1Cc1c([nH]c3ccccc13)C2c1ccc2c(c1)OCO2` (stereo not drawn) [Example 14]: 5.8 nM. Regarding `CCOC(=O)c1c(C(=O)OCC)c(C(C)C)n2c1Cc1c([nH]c3ccccc13)C2c1ccc2c(c1)OCO2` (stereo not drawn) [Example 15], the half-inhibitory concentration (IC50) came to 190 nM. Under `CN1CCC(N(C)C(=O)c2ccn3c2Cc2c([nH]c4ccccc24)C3c2ccc3c(c2)OCO3)CC1` (stereo not drawn) [Example 16] stands 330 nM; under `O=C(NCCn1cccn1)c1ccn2c1Cc1c([nH]c3ccccc13)C2c1ccc2c(c1)OCO2` (stereo not drawn) [Example 17], 8 nM. Under `CCOC(=O)c1cc(CO)n2c1Cc1c([nH]c3ccccc13)C2c1ccc2c(c1)OCO2` (stereo not drawn) [Example 18] stands 10 nM. Under `CCOC(=O)c1cc(C(C)C)n2c1Cc1c([nH]c3ccccc13)C2c1ccc2c(c1)OCO2` (stereo not drawn) [Example 19] stands 460 nM; under `O=C(NCc1cccc[n+]1[O-])c1ccn2c1Cc1c([nH]c3ccccc13)C2c1ccc2c(c1)OCO2` (stereo not drawn) [Example 20], 1.5 nM; under `CCOC(=O)c1cn2c(c1C(=O)OCC)Cc1c([nH]c3ccccc13)C2c1ccc2c(c1)OCO2` (stereo not drawn) [Example 21], 1.2 nM. Regarding `O=C(O)C1CCN(C(=O)c2ccn3c2Cc2c([nH]c4ccccc24)C3c2ccc3c(c2)OCO3)CC1` (stereo not drawn) [Example 22], the IC50 stood at 3 nM. `CCOC(=O)c1cc(C=O)n2c1Cc1c([nH]c3ccccc13)C2c1ccc2c(c1)OCO2` (stereo not drawn) [Example 23]: the IC50 is 3.9 nM. Under `O=C(NCCc1ccccn1)c1ccn2c1Cc1c([nH]c3ccccc13)C2c1ccc2c(c1)OCO2` (stereo not drawn) [Example 24] stands 2.1 nM; under `O=C(NCc1cccnc1)c1ccn2c1Cc1c([nH]c3ccccc13)C2c1ccc2c(c1)OCO2` (stereo not drawn) [Example 25], 5.9 nM. Under `CN(C)CCNC(=O)c1ccn2c1Cc1c([nH]c3ccccc13)C2c1ccc2c(c1)OCO2` (stereo not drawn) [Example 26] stands 110 nM; under `N#Cc1ccn2c1Cc1c([nH]c3ccccc13)C2c1ccc2c(c1)OCO2` (stereo not drawn) [Example 27], 3.6 nM; under `O=C(NCc1ccccn1)c1ccn2c1Cc1c([nH]c3ccccc13)C2c1ccc2c(c1)OCO2` (stereo not drawn) [Example 28], 3.7 nM. Under `CN(C(=O)O)C(=O)c1ccn2c1Cc1c([nH]c3ccccc13)C2c1ccc2c(c1)OCO2` (stereo not drawn) [Example 29] stands 3.8 nM; under `NCCNC(=O)c1ccn2c1Cc1c([nH]c3ccccc13)C2c1ccc2c(c1)OCO2` (stereo not drawn) [Example 30], 10 nM. Regarding `O=C(NCCN1CCOCC1)c1ccn2c1Cc1c([nH]c3ccccc13)C2c1ccc2c(c1)OCO2` (stereo not drawn) [Example 31], the IC50 worked out at 20 nM. Under `CCOC(=O)c1ccn2c1Cc1c([nH]c3ccccc13)C2c1ccc2c(c1)OCO2` (stereo not drawn) [Example 35] stands 5.5 nM; under `O=C(O)c1ccn2c1Cc1c([nH]c3ccccc13)C2c1ccc2c(c1)OCO2` (stereo not drawn) [Example 36], 10 nM; under `CCc1cc(C(=O)NCc2ccccn2)c2n1C(c1ccc3c(c1)OCO3)c1[nH]c3ccccc3c1C2` (stereo not drawn) [Example 53], 50 nM.
